The results in this text go back to US11912682B2, “Isoindolinone compounds” (Monte Rosa Therapeutics, Inc., priority 2021, dated 2024).

In one series the target is IKZF3 (Aiolos) (Homo sapiens (Human), UniProt Q9UKT9). In words: selectivity by Western blot in MM1S cells, IKZF3. The format is cell-based. The arrangement: key to IKZF3 degradation: A represents a no degradation observed at 30 μM; B represents trace degradation at 30 μM (below 20%); C represents weak degradation at 30 μM (below 50%); D represents degradation at 30 μM (>90%); E represents degradation at 3 μM (>90%); F represents degradation at 0.3 μM (>90%). The settings on record: for IKZF3 degradation: MM1S cells, 6 hours, 0.3, 3 and 30 μM. Here is the method:
MM1S cells were purchased from ATCC (cat. Number CRL-2974), sub-cultured in 90% RPMI 1640 with 10% FBS, supplemented with 1× P/S and incubated at 37° C., 5% CO2. Compounds were stored as 10 mM DMSO stock. For the assay, MM1S cells (3 million cells/well) were plated in 6-well plates and incubated over night. Cells were treated with respective compounds using a serial dilution: 0.3 μM, 3 μM and 30 μM as well as a vehicle only (DMSO) control for 6 hours. Media with suspension cells was subsequently transferred to 15 mL conical tubes, wells rinsed twice with ice-cold PBS and merged with cell suspension in respective 15 mL conical tube. Cells were spinned down, supernatant aspirated, pellets resuspended in ice-cold PBS and transferred to microtubes. Cells were spinned down, supernatant aspirated and pellets resuspended in 120 μL RIPA lysis buffer supplemented with protease and phosphatase inhibitors. Cell lysates were incubated on ice for 20 minutes followed by centrifugation at >20,000 xg for 5 min. Supernatants were transferred to fresh microtubes and stored at −80° C. Total protein concentration was determined using a BCA assay with a BSA standard curve and concentration of all samples was adjusted to 1 mg/mL. 25 μL 4× LDS sample buffer supplemented with 100 mM DTT was added to 75 μL sample. Samples were centrifuged (8,000 xg, 1 min) and incubated at 95° C. for 5 min followed by another centrifugation step (8,000 xg, 1 min). 20 μL of each sample was loaded on a 4-12% gel alongside a protein molecular weight marker. Gels were run in the presence of MOPS buffer at 80 Volts for 30 min, followed by 120 Volts for 1.5 h and proteins subsequently transferred onto nitrocellulose membranes at 20 Volts for 7 min using an iBlot2 Gel Transfer Device. Membranes were then cut horizontally into two pieces, covering 80-50 kDa and 50-25 kDa. Blocking the membranes was performed by gently shaking in 5% (w/v) skim milk in TSB-T for 1 hr at room temperature. All primary antibodies were used at a 1/1000 in 5% (w/v) BSA dissolved in TBST and incubated with membranes over night at 4° C. Anti-IKZF1 (Ikaros; D6N9Y; 14859S), anti-IKZF3 (Aiolos; D1C1E; 15103S) antibodies were purchased from Cell Signalling Technology, anti-ZFP91 antibody from Bethyl laboratories, anti-GSPT1 from Sigma Aldrich (HPA052488) and anti CK1alpha from AbCam (ab206652). After three washes with 1× TBST for 5 min, HRP-coupled secondary antibodies diluted in 5% (w/v) BSA/TBST (Goat Anti-Rb IgG, dil. 1/10,000; Goat Anti-Mouse IgG, dil. 1/5000) were added for 1 hr at room temperature. After three washes with 1× TBST (5 minutes each), membranes were incubated with ECL reagent for 1 min at room temperature. Chemiluminescence signals were then detected using a LAS-4000 system with default settings and signals quantified using Image Studio Lite software (version 5.2). Membrane parts previously incubated with antibody against CK1alpha were stripped off antibodies by incubating with stripping buffer for 30 minutes followed by three washed with TBST (5 min each), blocking with 5% (w/v) skim milk for 1 hr, and incubation with primary antibody against GAPDH overnight at 4° C. Subsequent washes, incubation with secondary antibody and signal acquisition were performed as described above.
(A western blot detects proteins with antibodies after separation by electrophoresis.)

The target of series [1] is T1, GSPT1 (Homo sapiens (Human), UniProt P15170+Q96SW2). In words: GSPT1 degradation in cells treated with compound (FIG. 1A). The format is cell-based. To be noted: cells treated with 0.3 µM.
T1 sequence (P15170 whole entry, looked up): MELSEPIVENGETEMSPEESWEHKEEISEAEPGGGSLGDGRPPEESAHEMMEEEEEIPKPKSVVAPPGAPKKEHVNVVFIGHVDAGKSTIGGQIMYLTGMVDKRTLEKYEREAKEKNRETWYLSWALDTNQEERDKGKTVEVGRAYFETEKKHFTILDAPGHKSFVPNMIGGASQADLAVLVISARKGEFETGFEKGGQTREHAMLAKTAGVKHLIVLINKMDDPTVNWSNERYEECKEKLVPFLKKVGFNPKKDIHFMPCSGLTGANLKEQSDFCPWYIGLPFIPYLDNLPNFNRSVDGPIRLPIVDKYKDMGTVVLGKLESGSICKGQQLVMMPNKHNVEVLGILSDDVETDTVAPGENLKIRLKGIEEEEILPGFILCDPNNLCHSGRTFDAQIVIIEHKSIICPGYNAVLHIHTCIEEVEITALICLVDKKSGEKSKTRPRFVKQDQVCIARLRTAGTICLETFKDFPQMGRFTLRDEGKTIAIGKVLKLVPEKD
T1 sequence (Q96SW2 whole entry, looked up): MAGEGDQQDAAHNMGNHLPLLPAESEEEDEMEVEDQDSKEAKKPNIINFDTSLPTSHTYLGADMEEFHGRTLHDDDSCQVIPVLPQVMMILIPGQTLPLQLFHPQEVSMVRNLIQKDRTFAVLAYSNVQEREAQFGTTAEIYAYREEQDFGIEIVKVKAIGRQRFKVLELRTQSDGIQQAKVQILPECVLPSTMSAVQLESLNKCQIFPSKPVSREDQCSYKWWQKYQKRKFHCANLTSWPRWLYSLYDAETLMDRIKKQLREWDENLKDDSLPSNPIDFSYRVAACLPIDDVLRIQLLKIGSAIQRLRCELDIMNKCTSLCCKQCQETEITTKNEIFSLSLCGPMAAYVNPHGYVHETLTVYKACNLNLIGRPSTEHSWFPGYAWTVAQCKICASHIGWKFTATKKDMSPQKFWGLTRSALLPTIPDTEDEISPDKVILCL
T1 sequence (Q16531 whole entry partner, looked up): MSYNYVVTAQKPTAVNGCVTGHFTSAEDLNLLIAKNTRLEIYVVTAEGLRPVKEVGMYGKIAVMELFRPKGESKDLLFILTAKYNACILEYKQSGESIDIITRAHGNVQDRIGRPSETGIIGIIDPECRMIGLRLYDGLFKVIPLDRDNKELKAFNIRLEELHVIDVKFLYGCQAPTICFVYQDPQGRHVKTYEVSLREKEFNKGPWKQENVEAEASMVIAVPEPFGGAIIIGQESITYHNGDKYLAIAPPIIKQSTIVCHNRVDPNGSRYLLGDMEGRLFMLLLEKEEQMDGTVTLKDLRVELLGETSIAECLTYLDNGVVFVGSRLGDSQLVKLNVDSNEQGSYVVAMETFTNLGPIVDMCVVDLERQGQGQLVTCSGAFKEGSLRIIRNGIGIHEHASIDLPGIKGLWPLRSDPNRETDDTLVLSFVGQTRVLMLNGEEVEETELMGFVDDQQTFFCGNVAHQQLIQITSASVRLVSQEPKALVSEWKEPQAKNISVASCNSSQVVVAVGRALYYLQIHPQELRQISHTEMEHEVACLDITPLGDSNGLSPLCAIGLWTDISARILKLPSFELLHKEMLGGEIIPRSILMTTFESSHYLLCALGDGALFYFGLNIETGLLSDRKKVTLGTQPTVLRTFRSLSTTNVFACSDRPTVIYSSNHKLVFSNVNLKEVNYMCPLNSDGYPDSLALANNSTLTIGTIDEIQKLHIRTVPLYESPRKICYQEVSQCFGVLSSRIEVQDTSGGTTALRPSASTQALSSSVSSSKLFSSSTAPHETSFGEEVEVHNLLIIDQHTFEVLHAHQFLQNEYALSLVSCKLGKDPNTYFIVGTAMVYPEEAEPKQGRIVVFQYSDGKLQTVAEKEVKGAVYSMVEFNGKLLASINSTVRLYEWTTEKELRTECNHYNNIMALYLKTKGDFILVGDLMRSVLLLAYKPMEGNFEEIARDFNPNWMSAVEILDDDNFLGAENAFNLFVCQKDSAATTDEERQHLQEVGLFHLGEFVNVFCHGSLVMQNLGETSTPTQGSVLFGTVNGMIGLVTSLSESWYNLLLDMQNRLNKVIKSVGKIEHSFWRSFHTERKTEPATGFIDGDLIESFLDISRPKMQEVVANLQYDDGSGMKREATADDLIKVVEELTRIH
The next series deals with IKZF1 (Homo sapiens (Human), UniProt Q13422). Nature of the series: IKZF1 degradation in cells treated with compound (FIG. 1A). Format: cell-based. The settings on record: concentrations up to 30 µM.
Chain of IKZF1 (Q13422 whole entry, looked up): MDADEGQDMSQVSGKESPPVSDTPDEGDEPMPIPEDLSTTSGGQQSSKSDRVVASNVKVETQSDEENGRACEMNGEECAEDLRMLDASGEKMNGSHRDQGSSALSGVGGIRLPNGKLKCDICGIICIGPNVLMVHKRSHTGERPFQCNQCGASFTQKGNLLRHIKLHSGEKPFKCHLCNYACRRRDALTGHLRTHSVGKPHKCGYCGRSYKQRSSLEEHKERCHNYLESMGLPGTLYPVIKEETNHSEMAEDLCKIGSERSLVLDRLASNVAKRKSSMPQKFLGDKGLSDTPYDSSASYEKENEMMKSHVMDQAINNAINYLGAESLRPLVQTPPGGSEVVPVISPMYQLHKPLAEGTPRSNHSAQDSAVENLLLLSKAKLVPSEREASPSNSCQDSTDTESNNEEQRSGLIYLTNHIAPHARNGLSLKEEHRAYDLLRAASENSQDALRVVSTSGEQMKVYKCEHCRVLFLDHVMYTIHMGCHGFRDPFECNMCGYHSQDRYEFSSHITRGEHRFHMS
The next series concerns the target IKZF3 (Homo sapiens (Human), UniProt Q9UKT9). Nature of the series: IKZF3 degradation in cells treated with compound (FIG. 1A). The format is cell-based. To be noted: concentrations up to 30 µM.
The next series addresses CK1alpha (Homo sapiens (Human), UniProt P48729). Nature of the series: CK1alpha degradation in cells treated with compound (FIG. 1A). Format: cell-based. To be noted: concentrations up to 30 µM.
The next series concerns ABC-1. Nature of the series: Viability of NSCLC cell line, high N-Myc (FIG. 2A). The format is cell-based. To be noted: ABC-1, high N-Myc; compared to low N-Myc lines EBC-1, NCI-H2023.
Series [2] addresses T1, GSPT1. In words: GSPT1 degradation in high N-Myc NSCLC cells (FIG. 2). The format is cell-based. To be noted: for DC50: six hours of treatment.
For series [3], the system named is human cell line NCI-H1155. Nature of the series: N-Myc-driven mouse xenograft model, NCI-H1155 (FIG. 3A). The format is in vivo. To be noted: for tumor size (tumor volume): study to day 21.
Series [4] concerns NCI-H1155 cells (human non small cell lung cancer). Nature of the series: NCI-H1155 xenograft study. The format is in vivo, female BALB/c nude mice. Here is the method: For the NCI-H1155 xenograft study, cells (human non small cell lung cancer, ATCC CRL-5818) were maintained in vitro as suspension culture in ATCC-formulated DMEM:F12 Medium supplemented as recommended by the provider and kept at 37° C. in an atmosphere of 5% CO2 in air. Cells (0.5 millions) were resuspended in 0.2 mL of PBS with Matrigel (50:50) and inoculated into female BALB/c nude mice, 6-8 weeks old, and allowed to grow to 150 mm^3 in size. Mice were dosed orally with either vehicle or compound 10 at 1 or 3 mg per kilogram daily (filled squares and filled triangles, respectively) or 6 mg per kilogram for 5 continous days followed by 9 days treatment holidays (5 On-9 off) (filled inverted triangles). Compound formulations were prepared fresh daily in 5%vDMSO/95%(30% w/v HP-β-CD in water). Gemcitabine dosed at 40 mg per kilogram, IP, Q4D×5 was used as a positive control (filled rhombi). For this study, mice were dosed for 21 days with tumor volumes measured every 3 days.

In series [5] the target is GSPT1 (Homo sapiens (Human), UniProt P15170). In words: GSPT1 levels in NCI-H1155 tumors by western blotting. Format: in vivo, female BALB/c nude mice. The settings on record: 6 hours after the third dose, all three dose levels. Here is the method:
GSPT1 levels in tumors were determined by western blotting 6 hours after the third dose. Western blotting was performed as described previously using GAPDH as loading control.

Chain of IKZF3 (Aiolos) (Q9UKT9 whole entry, looked up): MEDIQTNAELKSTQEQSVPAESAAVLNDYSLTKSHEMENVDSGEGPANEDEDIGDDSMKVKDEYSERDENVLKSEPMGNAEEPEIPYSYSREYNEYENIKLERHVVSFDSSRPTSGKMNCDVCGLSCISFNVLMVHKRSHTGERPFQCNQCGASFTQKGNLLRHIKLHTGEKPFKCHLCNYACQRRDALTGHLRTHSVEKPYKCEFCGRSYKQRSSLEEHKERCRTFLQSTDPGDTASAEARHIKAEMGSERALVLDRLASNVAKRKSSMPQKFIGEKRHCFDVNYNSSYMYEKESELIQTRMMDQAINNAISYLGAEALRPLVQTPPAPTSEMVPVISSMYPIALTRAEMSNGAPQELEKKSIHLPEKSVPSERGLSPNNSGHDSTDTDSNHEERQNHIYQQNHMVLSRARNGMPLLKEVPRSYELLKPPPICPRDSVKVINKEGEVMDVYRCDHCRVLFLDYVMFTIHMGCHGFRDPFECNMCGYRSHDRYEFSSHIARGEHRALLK
Chain of CK1alpha (P48729 whole entry, looked up): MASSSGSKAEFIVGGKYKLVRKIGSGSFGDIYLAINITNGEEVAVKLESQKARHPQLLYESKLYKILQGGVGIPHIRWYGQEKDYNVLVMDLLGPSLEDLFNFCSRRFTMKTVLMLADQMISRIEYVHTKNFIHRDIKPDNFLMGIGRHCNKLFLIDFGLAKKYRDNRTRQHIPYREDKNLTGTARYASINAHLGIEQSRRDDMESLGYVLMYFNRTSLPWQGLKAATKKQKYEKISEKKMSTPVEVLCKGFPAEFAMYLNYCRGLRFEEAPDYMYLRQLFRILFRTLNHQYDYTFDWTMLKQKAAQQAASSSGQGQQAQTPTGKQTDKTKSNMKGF
Chain of IKZF3 (Q9UKT9 whole entry, looked up): as the sequence (Q9UKT9 whole entry, looked up) above
Chain of GSPT1 (Homo sapiens (Human), UniProt P15170) (P15170 whole entry): as the sequence (P15170 whole entry, looked up) above
Chain of GSPT1 (Homo sapiens (Human), UniProt P15170) (Q96SW2 whole entry, further chain): as the sequence (Q96SW2 whole entry, looked up) above
Chain of GSPT1 (Homo sapiens (Human), UniProt P15170) (Q16531 2-1140 partner): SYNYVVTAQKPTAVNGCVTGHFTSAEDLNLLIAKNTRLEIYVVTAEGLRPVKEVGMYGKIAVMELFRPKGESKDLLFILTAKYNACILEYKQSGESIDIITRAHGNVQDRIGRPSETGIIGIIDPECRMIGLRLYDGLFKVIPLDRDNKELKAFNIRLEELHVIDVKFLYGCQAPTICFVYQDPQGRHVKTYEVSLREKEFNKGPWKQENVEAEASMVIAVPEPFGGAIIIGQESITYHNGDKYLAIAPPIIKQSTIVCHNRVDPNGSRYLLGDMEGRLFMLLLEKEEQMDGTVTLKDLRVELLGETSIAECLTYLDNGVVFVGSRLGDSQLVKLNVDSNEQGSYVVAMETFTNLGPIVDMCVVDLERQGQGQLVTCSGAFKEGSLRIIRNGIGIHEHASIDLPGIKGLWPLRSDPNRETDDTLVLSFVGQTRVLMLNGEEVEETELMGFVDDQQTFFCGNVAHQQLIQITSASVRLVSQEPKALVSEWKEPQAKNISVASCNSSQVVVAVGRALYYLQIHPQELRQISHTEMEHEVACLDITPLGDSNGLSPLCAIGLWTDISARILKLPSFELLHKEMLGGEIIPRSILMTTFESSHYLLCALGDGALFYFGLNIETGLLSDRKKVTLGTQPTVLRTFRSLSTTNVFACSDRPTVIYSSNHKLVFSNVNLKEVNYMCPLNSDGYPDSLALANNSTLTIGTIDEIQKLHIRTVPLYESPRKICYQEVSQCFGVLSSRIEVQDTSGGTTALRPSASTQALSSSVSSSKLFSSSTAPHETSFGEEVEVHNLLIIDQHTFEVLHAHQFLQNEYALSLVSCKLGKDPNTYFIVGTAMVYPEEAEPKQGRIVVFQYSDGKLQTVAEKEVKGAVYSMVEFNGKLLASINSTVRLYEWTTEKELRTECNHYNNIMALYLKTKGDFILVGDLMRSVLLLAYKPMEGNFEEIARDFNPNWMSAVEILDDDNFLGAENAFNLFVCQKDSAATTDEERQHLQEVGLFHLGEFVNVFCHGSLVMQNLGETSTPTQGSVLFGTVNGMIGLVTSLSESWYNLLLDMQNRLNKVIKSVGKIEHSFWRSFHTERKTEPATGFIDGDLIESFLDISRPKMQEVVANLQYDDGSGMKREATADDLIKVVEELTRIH

Take `Cc1ncc(NC(=O)OCc2ccc3c(c2)C(=O)N(C2CCC(=O)NC2=O)C3)cc1Cl` (centres unmarked) [Compound 6]: the IKZF3 degradation entry on IKZF3 (Aiolos) was “B (B represents trace degradation at 30 μM (below 20%))”.

By DC50 is commonly meant the concentration at which degradation of the target reaches its halfway point. On to `Cc1ccc(NC(=O)OCc2ccc3c(c2)C(=O)N(C2CCC(=O)NC2=O)C3)cc1Cl` (centres unmarked) [Compound 10], for which the “degradation of GSPT1” value on GSPT1 [1] is listed as “complete degradation”. Moreover, the “degradation of IKZF1” value at IKZF1 was “no induction of degradation”. The “degradation of IKZF3” value at IKZF3 is “no induction of degradation”. The “degradation of CK1alpha” value at CK1alpha is “no induction of degradation”. Besides, the “sensitivity to treatment (viability in %)” value with ABC-1 is “highly sensitive”. Besides, the DC50 is 22 nM on GSPT1 [2] (ABC-1 cells) and 3 nM on GSPT1 [2] (NCI-H1155 cells). Moreover, on GSPT1 [2] (FIG. 2B), the “relative levels of GSPT1 vs concentration” value is given as “concentration dependent manner”. Besides, the “extent of GSPT1 degradation” value on GSPT1 [2] (both cell lines, NCI-H1155 and ABC-1) is on record as “complete degradation”. Also, the “tumor growth (tumor volume)” value in [3] (1 mg/kg PO once daily) was “tumor growth was suppressed for two weeks”. The “tumor size (tumor volume)” value in series [3] (3 mg/kg PO once daily) is “tumor size decreased, became undetectable by day eight and remained so until the end of the study at day 21”; in series [3] (6 mg/kg PO five days on and nine days off), “tumor size decreased, became undetectable by day eight and remained so until the end of the study at day 21”. In addition, the values for the body weight entry in series [3] (oral administration) and in series [4] (oral administration) were “no body weight loss” and “no body weight loss observed”, respectively. Besides, in series [3] (oral administration), the “effect on tumor growth (tumor volume)” value is listed as “tumor growth inhibition”. At IKZF3 (Aiolos), the IKZF3 degradation result was “B (B represents trace degradation at 30 μM (below 20%))”. For the same molecule, the “IKZF3 degradation (FIG. 1A)” value at IKZF3 (Aiolos) (highest concentration tested of 30 μM) was “none of the known the substrates IKZF1, IKZF3, SALL4, CK1alpha was degraded”. The “tumor growth (FIG. 3A)” value was “tumor growth was suppressed for two weeks” in [4] (1 mg/kg once daily, oral) and “tumor growth inhibition” in series [4] (oral administration). Besides, the “tumor size (FIG. 3A)” value in series [4] (3 mg/kg once daily, oral) is “tumor size decreased, became undetectable by day eight and remained so until the end of the study at day 21”; in series [4] (6 mg/kg five days on and nine days off, oral) it was “tumor size decreased, became undetectable by day eight and remained so until the end of the study at day 21”. At GSPT1 [5], the “GSPT1 levels in tumors (FIG. 3B)” value is “Complete degradation of GSPT1”.

In the case of `O=C1CCC(N2Cc3ccc(COC(=O)Nc4ccc(N5CCCCC5)nc4)cc3C2=O)C(=O)N1` (centres unmarked) [Compound 15], at IKZF3 (Aiolos), the IKZF3 degradation entry is “B (B represents trace degradation at 30 μM (below 20%))”.

`O=C1CCC(N2Cc3ccc(COC(=O)Nc4ccc(-c5ccccc5)nc4)cc3C2=O)C(=O)N1` (centres unmarked) [Compound 42]: the IKZF3 degradation result at IKZF3 (Aiolos) was “A”.

With `CC(C)(C)c1ccc(NC(=O)OCc2ccc3c(c2)C(=O)N(C2CCC(=O)NC2=O)C3)cn1` (centres unmarked) [Compound 43], the IKZF3 degradation entry on IKZF3 (Aiolos) is given as “B (B represents trace degradation at 30 μM (below 20%))”.
